Bridge positions count the residues as written; N and C are the ends. Ends that are not written are not given here.
Legend:
[1] = test system: MCF-7, MDA-MB-231, A-549 and PC-3 cells; assay: Confocal fluorescence detection of cell entry in live carcinoma cells; assay type: cell-based, human; settings: 10 μM in media for 60 min; live cells washed 3×; confocal microscopy, TAMRA filter; breast (MCF-7, MDA-MB-231), lung (A-549), prostate (PC-3)
[2] = biological target: XPNPEP1, APaseP human recombinant protein (Homo sapiens, UniProt Q9NQW7); assay: Biacore binding affinity assay
XPNPEP1, APaseP human recombinant protein, sequence (Q9NQW7 whole entry): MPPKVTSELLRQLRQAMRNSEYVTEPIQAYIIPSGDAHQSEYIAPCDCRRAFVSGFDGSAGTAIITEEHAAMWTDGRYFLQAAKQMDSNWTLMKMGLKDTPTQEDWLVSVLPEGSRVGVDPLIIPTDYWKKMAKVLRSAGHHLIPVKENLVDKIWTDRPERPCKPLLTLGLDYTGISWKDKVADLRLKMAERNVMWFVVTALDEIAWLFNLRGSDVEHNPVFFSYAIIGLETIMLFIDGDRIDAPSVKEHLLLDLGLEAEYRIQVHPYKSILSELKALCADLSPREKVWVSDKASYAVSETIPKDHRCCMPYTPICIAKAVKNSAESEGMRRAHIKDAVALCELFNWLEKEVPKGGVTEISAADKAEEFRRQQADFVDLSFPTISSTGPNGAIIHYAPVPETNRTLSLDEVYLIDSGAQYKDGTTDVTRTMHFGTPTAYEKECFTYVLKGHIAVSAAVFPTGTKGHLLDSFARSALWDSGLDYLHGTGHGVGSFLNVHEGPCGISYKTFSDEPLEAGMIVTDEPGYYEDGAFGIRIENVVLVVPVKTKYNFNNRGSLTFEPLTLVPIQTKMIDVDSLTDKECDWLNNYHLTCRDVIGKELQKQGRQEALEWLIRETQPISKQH

Sequence	Cell entry (fluorescence detection) [1]	Kd [2]
CPGPEGAGC (disulfide 1-9 (inferred))	did not enter breast-derived cells	
RPPGFSPFR [Bradykinin]		15.3 ± 8 µM

Source: publication PMC5702532 (Bioconjugate chemistry, 2016)
